# Laboratory results as given in ChEMBL document CHEMBL5532637, “Antimicrobial activity of natural and semi-synthetic carbazole alkaloids” (Eur J Med Chem, 2023).
# Legend:
# Escherichia coli [1] = test: Antibacterial activity against Escherichia coli JW5503 harboring tolC mutant assessed as inhibition of bacterial growth incubated for 16 to 20 hrs by two-fold serial dilution assay; type: functional; conditions: time 16-20 hrs
# Staphylococcus aureus [2] = test: Antibacterial activity against Staphylococcus aureus assessed as inhibition of bacterial growth; type: functional, organism-based
# Staphylococcus aureus [3] = test: Antibacterial activity against Staphylococcus aureus assessed as inhibition of bacterial growth by broth microdilution method; type: functional
# Klebsiella pneumoniae [4] = test: Antibacterial activity against Klebsiella pneumoniae assessed as inhibition of bacterial growth by broth microdilution method; type: functional
# Escherichia coli [5] = test: Antibacterial activity against Escherichia coli assessed as inhibition of bacterial growth by broth microdilution method; type: functional
# Pseudomonas aeruginosa [6] = test: Antibacterial activity against Pseudomonas aeruginosa assessed as inhibition of bacterial growth by broth microdilution method; type: functional
# Staphylococcus aureus [7] = test: Antibacterial activity against Staphylococcus aureus TISTR 1466 assessed as inhibition of bacterial growth by two-fold serial dilution method; type: functional
# Staphylococcus aureus [8] = test: Antibacterial activity against methicillin-resistant Staphylococcus aureus SK1 assessed as inhibition of bacterial growth by two-fold serial dilution method; type: functional
# Escherichia coli [9] = test: Antibacterial activity against Escherichia coli TISTR 780 assessed as inhibition of bacterial growth by two-fold serial dilution method; type: functional
# Salmonella typhimurium = test: Antibacterial activity against Salmonella typhimurium TISTR 292 assessed as inhibition of bacterial growth by two-fold serial dilution method; type: functional, Salmonella enterica subsp. enterica serovar Typhimurium; conditions: Salmonella enterica
# Xanthomonas oryzae = test: Antimicrobial activity against Xanthomonas oryzae by turbidimetric analysis; type: functional, organism-based
# Xanthomonas axonopodis = test: Antimicrobial activity against Xanthomonas axonopodis by turbidimetric analysis; type: functional, organism-based
# [10] = Antimicrobial activity against Pseudomonas syringae pv. actinidiae by turbidimetric analysis; type: functional
# Staphylococcus aureus [11] = test: Antimicrobial activity against Staphylococcus aureus ATCC 29213 assessed as inhibition of microbial growth incubated for 24 hrs by two-fold serial dilution assay; type: functional
# Bacillus subtilis [12] = test: Antimicrobial activity against Bacillus subtilis ATCC 6633 assessed as inhibition of microbial growth incubated for 24 hrs by two-fold serial dilution assay; type: functional
# Priestia megaterium = test: Antimicrobial activity against Bacillus megaterium ATCC 9885 assessed as inhibition of microbial growth incubated for 24 hrs by two-fold serial dilution assay; type: functional
# Micrococcus luteus = test: Antimicrobial activity against Sarcina lutea assessed as inhibition of microbial growth incubated for 24 hrs by two-fold serial dilution assay; type: functional
# Klebsiella pneumoniae [13] = test: Antimicrobial activity against Klebsiella pneumoniae ATCC 13883 assessed as inhibition of microbial growth incubated for 24 hrs by two-fold serial dilution assay; type: functional
# Pseudomonas aeruginosa [14] = test: Antimicrobial activity against Pseudomonas aeruginosa ATCC 27953 assessed as inhibition of microbial growth incubated for 24 hrs by two-fold serial dilution assay; type: functional
# Escherichia coli [15] = test: Antimicrobial activity against Escherichia coli ATCC 25922 assessed as inhibition of microbial growth incubated for 24 hrs by two-fold serial dilution assay; type: functional
# Candida albicans [16] = test: Antimicrobial activity against Candida albicans NRRL Y-477 assessed as inhibition of microbial growth incubated for 48 hrs by two-fold serial dilution assay; type: functional
# Candida albicans [17] = test: Antifungal activity against Candida albicans assessed as inhibition of fungal growth incubated for overnight by MTT based serial dilution method; type: functional
# Candida tropicalis = test: Antifungal activity against Candida tropicalis assessed as inhibition of fungal growth incubated for overnight by MTT based serial dilution method; type: functional
# Aspergillus fumigatus = test: Antifungal activity against Aspergillus fumigatus assessed as inhibition of fungal growth incubated for overnight by MTT based serial dilution method; type: functional
# Pasteurella multocida = test: Antibacterial activity against Pasteurella multocida assessed as inhibition of bacterial growth by agar well diffusion method; type: functional
# [18] = system: Schizosaccharomyces pombe; test: Antifungal activity against Schizosaccharomyces pombe DSM 70572 assessed as inhibition of fungal growth incubated for 24 hrs by serial dilution method; type: functional
# Mucor hiemalis = test: Antifungal activity against Mucor hiemalis DSM 2656 assessed as inhibition of fungal growth incubated for 24 hrs by serial dilution method; type: functional
# Rhodotorula glutinis = test: Antifungal activity against Rhodotorula glutinis DSM 10134 assessed as inhibition of fungal growth incubated for 24 hrs by serial dilution method; type: functional
# Bacillus subtilis [19] = test: Antibacterial activity against Bacillus subtilis DSM 10 assessed as inhibition of bacterial growth incubated for 24 hrs by serial dilution method; type: functional
# [20] = system: Mycolicibacterium smegmatis; test: Antibacterial activity against Mycobacterium smegmatis DSM ATCC 700084 assessed as inhibition of bacterial growth incubated for 24 hrs by serial dilution method; type: functional
# Staphylococcus aureus [21] = test: Antibacterial activity against Staphylococcus aureus DSM 346 assessed as inhibition of bacterial growth incubated for 24 hrs by serial dilution method; type: functional
# [22] = system: Staphylococcus epidermidis; test: Antibacterial activity against Staphylococcus epidermidis assessed as zone of inhibition at 25 ug/ml; type: functional; conditions: read-out: IZ
# Proteus vulgaris = test: Antibacterial activity against Proteus vulgaris assessed as zone of inhibition at 25 ug/ml; type: functional; conditions: read-out: IZ
# Escherichia coli [23] = test: Antibacterial activity against Escherichia coli assessed as zone of inhibition at 25 ug/ml; type: functional; conditions: read-out: IZ
# Vibrio cholerae = test: Antibacterial activity against Vibrio cholerae assessed as inhibition of bacterial growth incubated for 24 hrs by broth microdilution method; type: functional
# Shigella flexneri = test: Antibacterial activity against Shigella flexneri assessed as inhibition of bacterial growth incubated for 24 hrs by broth microdilution method; type: functional
# Staphylococcus aureus [24] = test: Antibacterial activity against Staphylococcus aureus assessed as inhibition of bacterial growth incubated for 24 hrs by broth microdilution method; type: functional
compound,measurement,setting,value
NC1CCCc2c1[nH]c1ccc(Cl)cc21 (stereo not drawn),MIC,Escherichia coli [1],37 µg/mL
COc1cc2[nH]c3c4c(c(C)cc3c2cc1OC)OC(C)(C)C=C4,IC50,Staphylococcus aureus [2],20.9 µM
CC(C)=CCCC1(C)C=Cc2c(c(C)cc3c2[nH]c2cc(O)ccc23)O1 (stereo not drawn),MIC90,Staphylococcus aureus [3],3.12 µg/mL
same,MIC90,Klebsiella pneumoniae [4],3.12 µg/mL
same,MIC90,Escherichia coli [5],> 100 µg/mL
same,MIC90,Pseudomonas aeruginosa [6],> 100 µg/mL
CC1(C)Oc2ccc3[nH]c4cc(O)c(C=O)cc4c3c2[C@@H](O)[C@H]1O,MIC,Staphylococcus aureus [7],64 µg/mL
same,MIC,Staphylococcus aureus [8],64 µg/mL
same,MIC,Escherichia coli [9],64 µg/mL
same,MIC,Salmonella typhimurium,64 µg/mL
O=C(CCn1c2c(c3ccccc31)CCCC2)N1C[C@H]2C[C@H](C1)c1cccc(=O)n1C2,MIC,Escherichia coli [1],42.1 µg/mL
OC(CNCc1cn(-c2ccc(F)cc2)nn1)Cn1c2ccccc2c2ccccc21 (stereo not drawn),EC50,Xanthomonas oryzae,3.36 µg/mL
same,EC50,Xanthomonas axonopodis,2.87 µg/mL
same,EC50,[10],14.2 µg/mL
O=C(NN1C(=O)C(Cl)=C(Cl)C1=O)c1ccc(-n2c3c(c4ccccc42)CCCC3)cc1,MIC,Staphylococcus aureus [11],25 µg/mL
same,MIC,Bacillus subtilis [12],25 µg/mL
same,MIC,Priestia megaterium,25 µg/mL
same,MIC,Micrococcus luteus,25 µg/mL
same,MIC,Klebsiella pneumoniae [13],25 µg/mL
same,MIC,Pseudomonas aeruginosa [14],25 µg/mL
same,MIC,Escherichia coli [15],25 µg/mL
same,MIC,Candida albicans [16],25 µg/mL
O=C1COc2ccccc2N1CC(O)CN1CCN(CC(O)Cn2c3ccccc3c3ccccc32)CC1 (stereo not drawn),EC50,Xanthomonas oryzae,4.95 µg/mL
same,EC50,Xanthomonas axonopodis,4.71 µg/mL
same,EC50,[10],8.5 µg/mL
COCn1c2c(c3cccc(C)c31)Cc1cocc1C2,MIC,Candida albicans [17],7.81 µg/mL
same,MIC,Candida tropicalis,7.81 µg/mL
same,MIC,Aspergillus fumigatus,7.81 µg/mL
C/C(=N/Nc1ccc([N+](=O)[O-])cc1[N+](=O)[O-])C1CCCc2c1n(C)c1c([N+](=O)[O-])cc([N+](=O)[O-])cc21 (stereo not drawn),MIC,Pasteurella multocida,4.5 µg/mL
COCn1c2c(c3cc(F)ccc31)Cc1cocc1C2,MIC,Candida albicans [17],7.81 µg/mL
same,MIC,Candida tropicalis,7.81 µg/mL
same,MIC,Aspergillus fumigatus,7.81 µg/mL
Clc1ccc2[nH]c3c(c2c1)CCCC31CCCn2ccnc21 (stereo not drawn),MIC,[18],53.2 µM
same,MIC,Mucor hiemalis,53.2 µM
same,MIC,Rhodotorula glutinis,53.2 µM
same,MIC,Bacillus subtilis [19],53.2 µM
same,MIC,[20],53.2 µM
same,MIC,Staphylococcus aureus [21],53.2 µM
O=C(NN1C(=O)c2ccccc2C1=O)c1ccc(-n2c3c(c4ccccc42)CCCC3)cc1,MIC,Staphylococcus aureus [11],25 µg/mL
same,MIC,Bacillus subtilis [12],25 µg/mL
same,MIC,Priestia megaterium,25 µg/mL
same,MIC,Micrococcus luteus,25 µg/mL
same,MIC,Klebsiella pneumoniae [13],25 µg/mL
same,MIC,Pseudomonas aeruginosa [14],25 µg/mL
same,MIC,Escherichia coli [15],25 µg/mL
same,MIC,Candida albicans [16],25 µg/mL
COC(=O)c1cc(O)c2[nH]c3ccc4c(c3c2c1)C=CC(C)(C)O4,MIC,Staphylococcus aureus [7],64 µg/mL
same,MIC,Staphylococcus aureus [8],64 µg/mL
same,MIC,Escherichia coli [9],64 µg/mL
same,MIC,Salmonella typhimurium,64 µg/mL
Cc1ccc2[nH]c3c(c2c1)CC/C(=C\c1ccc(Br)cc1)C3=O,zone of inhibition at 25 µg/mL,[22],15 mm
same,zone of inhibition at 25 µg/mL,Proteus vulgaris,15 mm
same,zone of inhibition at 25 µg/mL,Escherichia coli [23],15 mm
COc1cc(C)c(CC=C(C)C)c2c1[nH]c1ccccc12,MIC,Vibrio cholerae,32 µg/mL
same,MIC,Shigella flexneri,32 µg/mL
same,MIC,Staphylococcus aureus [24],32 µg/mL
NCC1CCCc2c1[nH]c1ccc(Cl)cc21 (stereo not drawn),MIC,Escherichia coli [1],21.1 µg/mL
CC(C)=CCc1c(O)ccc2[nH]c3cc(O)c(C=O)cc3c12,MIC,Staphylococcus aureus [7],64 µg/mL
same,MIC,Staphylococcus aureus [8],64 µg/mL
same,MIC,Escherichia coli [9],64 µg/mL
same,MIC,Salmonella typhimurium,64 µg/mL
CC(C)=CCC[C@@]1(C)C=Cc2c(ccc3c2[nH]c2ccc(C=O)cc23)O1,IC50,Staphylococcus aureus [2],11.7 µM
Brc1ccc2[nH]c3c(c2c1)CCCC31CCCn2ccnc21 (stereo not drawn),MIC,[18],66.6 µM
same,MIC,Mucor hiemalis,66.6 µM
same,MIC,Rhodotorula glutinis,66.6 µM
same,MIC,Bacillus subtilis [19],66.6 µM
same,MIC,[20],66.6 µM
same,MIC,Staphylococcus aureus [21],66.6 µM
